Columns and labels:
[1] = test system: T-ALL cells from patients; assay: Proliferation (3H-thymidine) of patient T-ALL cells; type: cell-based, human
Source text: CCRF-CEM, CEM/C1, CEM/C2, CEM-C7, Jurkat, Loucy, Molt-4, HSB-2, SUP-T1, Hut 78, HH, Hut 102, MO, and H9 T-leukemia and T-lymphoma cell lines were purchased from the American Type Culture Collection (Manassas, Va., USA). All of the cell lines were initially expanded and cryopreserved within one month of receipt. Cells were typically used for 6 months at which time a fresh vial of cryopreserved cells was used. Total T cells from healthy donors were isolated via negative selection followed by positive selection using a CD3+ selection kit (Invitrogen, Carlsbad, Calif.). T cells were isolated from patients with T-ALL bone marrow or peripheral blood samples containing more than 70% leukemia cells using a CD2+ isolation kit (STEMCELL Technologies, Vancouver, Canada). All tissues were collected under institutional IRB-approved protocols and all participants gave written informed assent/consent. For in vitro experiments, T-ALL cells were cultured in AIM-V medium supplemented with 20% human AB serum in the presence of recombinant human stem cell factor (50 ng/mL; Amgen, Thousand Oaks, Calif.), insulin (20 nM; Sigma-Aldrich, St Louis, Mo., USA) and IL-7 (50 ng/mL; R&D Systems, Minneapolis, Minn., USA). […]
Cells were cultured in a 96-well plate (Corning Costar, Corning, N.Y., USA) with various concentrations of TLR ligands 1-9, starting at 10 μg/ml, in a final volume of 200 ul. […] After this time point, cells were harvested with a Packard Filter-Mate-96 cell harvester (Perkin Elmer, Waltham, Mass., USA) and counted on Packard Top Count-NXT (Perkin Elmer, Waltham, Mass., USA). Results were expressed as average counts per minute (cpm). […] Forty-eight hours later, proliferation (±SD) was determined by ^3H-thymidine incorporation. Alternatively, apoptosis was measured by flow cytometry after staining cells with Annexin-V (BD Pharmingen, San Diego, Calif., USA) and propidium iodide (Sigma). Cell number was counted under microscopy by staining cells with trypan blue.

[2] = test system: CCRF-CEM; assay: Proliferation (3H-thymidine) of CCRF-CEM; type: cell-based, human
Source text: CCRF-CEM, CEM/C1, CEM/C2, CEM-C7, Jurkat, Loucy, Molt-4, HSB-2, SUP-T1, Hut 78, HH, Hut 102, MO, and H9 T-leukemia and T-lymphoma cell lines were purchased from the American Type Culture Collection (Manassas, Va., USA). All of the cell lines were initially expanded and cryopreserved within one month of receipt. Cells were typically used for 6 months at which time a fresh vial of cryopreserved cells was used. Total T cells from healthy donors were isolated via negative selection followed by positive selection using a CD3+ selection kit (Invitrogen, Carlsbad, Calif.). T cells were isolated from patients with T-ALL bone marrow or peripheral blood samples containing more than 70% leukemia cells using a CD2+ isolation kit (STEMCELL Technologies, Vancouver, Canada). All tissues were collected under institutional IRB-approved protocols and all participants gave written informed assent/consent. For in vitro experiments, T-ALL cells were cultured in AIM-V medium supplemented with 20% human AB serum in the presence of recombinant human stem cell factor (50 ng/mL; Amgen, Thousand Oaks, Calif.), insulin (20 nM; Sigma-Aldrich, St Louis, Mo., USA) and IL-7 (50 ng/mL; R&D Systems, Minneapolis, Minn., USA). In other experiments, protein lysate was collected using the Full Moon Biosystems (Sunnyvale, Calif., USA) buffer prior to protein examination by western blot or protein array.
Cells were cultured in a 96-well plate (Corning Costar, Corning, N.Y., USA) with various concentrations of TLR ligands 1-9, starting at 10 μg/ml, in a final volume of 200 ul. TLR ligands were diluted 2-fold. Cell lines (25-40×10^3/well) were cultured for 54 hours, whereas fresh patient-derived T-ALL cells (200×10^3/well) were cultured for 30 hours prior to adding [^3H]-thymidine for 18 hours. After this time point, cells were harvested with a Packard Filter-Mate-96 cell harvester (Perkin Elmer, Waltham, Mass., USA) and counted on Packard Top Count-NXT (Perkin Elmer, Waltham, Mass., USA). Results were expressed as average counts per minute (cpm). In some experiments CCRF-CEM cells were pre-treated with TLR1-TLR2 ligand (Pam3CysK4; 2.5 ug/ml) for 48 hrs, washed, and then cultured in the presence of varying concentrations of FBS. Forty-eight hours later, proliferation (±SD) was determined by ^3H-thymidine incorporation. Alternatively, apoptosis was measured by flow cytometry after staining cells with Annexin-V (BD Pharmingen, San Diego, Calif., USA) and propidium iodide (Sigma). Cell number was counted under microscopy by staining cells with trypan blue.
The following TLR ligands were purchased from Invivogen (San Diego, Calif., USA): tripalmitoyl-S-(bis(palmitoyloxy)propyl)-Cys-Ser-(Lys)3-Lys (TLR1-2); Poly I:C (TLR3); ultrapure S. Minnesota Lipopolysaccharide (TLR4); S. typhimurium flagellin (TLR5); FSL-1 (TLR2/6); Imiquimod (TLR7); ssRNA40/Lyovec (TLR8); CpG-ODN 2006 (TLR9).

[3] = test system: CCRF-CEM cells; assay: CCRF-CEM T-ALL numbers in NSG mice (flow cytometry); type: in vivo
Description: CCRF-CEM (2×10^6) cells were injected intravenously (i.v.) into female NOD.Cg-Prkdc^scid Il2rg^tm1WJl/SzJ IL2RG (NSG) mice (Jackson Laboratories, Bar Harbor, Me.). […] In some experiments mice were injected i.v. with TLR1-TLR2 ligand (2.5 μg) two days after injecting cells. In other experiments mice were injected intraperitoneally (i.p.) with IRAK-1,-4 inhibitor (10 mg/kg) 3, 6, and 9 days (CCRF-CEM cells) or 7, 10, and 13 days (patient T-ALL cells) after detecting CD7^+ T-ALL cells in circulation. The numbers of T-ALL cells in the bone marrow, spleen, liver, and in circulation were determined by staining cells with anti-human CD7 and/or CD5. To compare T-ALL numbers between groups, 10 μl of calibration microbeads (BD Pharmingen) were added to 50 μl of blood (or marrow or spleen suspensions) and the flow cytometry instrument gates were set to count a constant number of beads.
The therapeutic efficacy of IRAK-1,-4 inhibitor was examined in mice with T-ALL. NSG mice were injected (i.v.) with the human T-ALL cell line CCRF-CEM. Mice were intraperitoneally (i.p.) injected with IRAK-1,-4 inhibitor 3, 6, and 9 days after T-ALL cells were detected in the circulation. The number of T-ALL cells in various tissues was determined four days after the final IRAK-1,-4 inhibitor injection by staining cells with human-specific anti-CD7 antibodies and analyzing by flow cytometry. The number of T-ALL cells was counted after normalization to calibration beads.
The physiological significance of activating TLR-IRAK signaling and T-ALL expansion was examined in vivo. NSG mice harboring CCRF-CEM cells were injected with either TLR1-TLR2 ligand or PBS. One week later the numbers of CD5+CD7+ T-ALL cells in bone marrow and spleen were determined by flow cytometry (FIG. 5, left). To normalize the T-ALL cell count between mice, an equal volume of calibration beads was added to blood samples and the instrument gates were set to count a constant number of beads.

[4] = 10 mg/kg i.p. days 3, 6, 9, FIG. 17
[5] = 10 mg/kg i.p. days 3, 6, 9, vs DMSO or untreated, p<0.05
[6] = TLR1-TLR2 ligand 2.5 μg i.v. vs PBS, p<0.05, FIG. 5

Compound	proliferation of patient T-ALL samples ([1]; samples with phosphorylated IRAK-1,-4, vs equal volume DMSO, FIG. 6D)	reduction of proliferation of TLR1-TLR2-stimulated cells ([2]; IRAK-1,-4 inhibitor 5 μM with TLR1-TLR2 agonist 1 μg/ml, 48 h, FIG. 3A) [%]	lowest concentration effective in reducing proliferation ([2]; concentration-dependent, 48 h, FIG. 3B) [µM]	T-ALL cell numbers in the liver [3, 4]	T-ALL cell numbers in the spleen [3, 4]	number of CD7+ T-ALL cells in circulation [3, 5]	number of CD7+ T-ALL cells in the bone marrow [3, 5]	proliferation of patient T-ALL samples ([1]; five T-ALL patient samples, TLR1-TLR2 ligand, p<0.01, FIG. 6B)	concentrations giving increased proliferation ([1]; responding T-ALL patient samples, FIG. 6B)	Proliferative effects of TLR ligands ([2]; 3H-thymidine uptake, 72 h)	concentration at which cells proliferated in response to the ligand ([2]; FIG. 1A) [µg/mL]	effect on proliferation (in words) ([2]; FIG. 1A)	TLR ligand concentration in parentheses below the symbol ([2]; no unit in table (μg/ml))	T-ALL cell number (CD5+CD7+) in the bone marrow [3, 6]	T-ALL cell number (CD5+CD7+) in the spleen [3, 6]
O=C(Nc1nc2ccccc2n1CCN1CCOCC1)c1cccc([N+](=O)[O-])c1 [IRAK-1,-4 inhibitor]	Every sample exhibited reduced proliferation	72	1.5	only moderately reduced	only moderately reduced	significantly reduced	significantly reduced								
tripalmitoyl-S-(bis(palmitoyloxy)propyl)-Cys-Ser-(Lys)3-Lys [Pam3Cysk4]								Two of five samples exhibited increased proliferation	above 1.25 μg/ml	+ (enhanced proliferation by 25% or greater)	1.2	proliferated	(1.2)	significantly augmented	significantly augmented

— patent US9464326B2, “Total and phosphorylated IL-1 receptor-associated kinase-1 and IL-1 receptor-associated kinase-4 as a biomarker for cancer progression and chemotherapy resistance” (University of Maryland, Baltimore, priority 2012, dated 2016)
